In patent US8940716B2, “Bicyclic heteroaryl compounds as GPR119 modulators” (Bristol-Myers Squibb Company, priority 2010, dated 2015):

Key:
[1] = test system: plasma glucose in male C57BL/6J mice; assay: Mouse oral glucose tolerance test; type: in vivo
Method: Twenty four (24) male C57BL/6J mice (8-10 weeks old, average weight 28 g) were randomized into 4 groups (1 mouse/cage) of 6 mice per group based on fed plasma glucose and body weight. Prior to initiating the study, mice were fasted overnight and the next morning they were weighed and placed in the experimental lab. After 30 min in the environment, the mice were bled via tail tip at −60 min and immediately given their first oral administration of vehicle (40% PEG400, 10% Cremophor EL, 50% water) or compound solutions (5 ml/kg). At time 0 the mice were bled and given 50% glucose (2 g/kg) to initiate the oral glucose tolerance test (oGTT). The mice were bled 30, 60 and 120 min after the glucose load. Blood samples were drawn into potassium EDTA, placed on ice during the study and subsequently centrifuged for 10 min at 3000 rpm at 4° C. Plasma samples were diluted 11-fold for glucose analysis in the COBAS MIRA® System (Roche Diagnostics). Area under the curve was calculated from the plasma glucose time course data using the trapezoid rule with fasting plasma glucose as the baseline (GraphPad Prism Software). The statistical significance of the changes in the glucose AUCs resulting from the different treatments was determined by one-way ANOVA followed by Dunnett's test using the vehicle group as the control (JMP software, release 5.1.2). […]

[2] = biological target: T1, human-mouse chimeric GPR119 (Homo sapiens, UniProt Q8TDV5, A235T/C313R/C323Y/E253K/F304I/F307L/G211A/G245S/H255C/K284R/L224V/L258Q/L288Q/L301F/P218V/P318T/Q252H/R262K/S214P/S219N/S228A/S309P/S322A/T217S/T239S/V227I/V300F); assay: Tet-inducible cAMP assay; type: cell-based; details: cAMP accumulation (HTRF), Flp-In-T-Rex-HEK293 cells expressing chimeric human/mouse GPR119, 50 min incubation; read-out: GPR119 EC50
T1 construct: the first 198 amino acids of human GPR119; the C-terminal 137 amino acids of the mouse receptor; expressed in transfected cells
T1 sequence (Q8TDV5 with tags, fused parts or gaps G211A/S214P/T217S/P218V/S219N/L224V/V227I/S228A/A235T/T239S/G245S/Q252H/E253K/H255C/L258Q/R262K/K284R/L288Q/V300F/L301F/F304I/F307L/S309P/C313R/P318T/S322A/C323Y): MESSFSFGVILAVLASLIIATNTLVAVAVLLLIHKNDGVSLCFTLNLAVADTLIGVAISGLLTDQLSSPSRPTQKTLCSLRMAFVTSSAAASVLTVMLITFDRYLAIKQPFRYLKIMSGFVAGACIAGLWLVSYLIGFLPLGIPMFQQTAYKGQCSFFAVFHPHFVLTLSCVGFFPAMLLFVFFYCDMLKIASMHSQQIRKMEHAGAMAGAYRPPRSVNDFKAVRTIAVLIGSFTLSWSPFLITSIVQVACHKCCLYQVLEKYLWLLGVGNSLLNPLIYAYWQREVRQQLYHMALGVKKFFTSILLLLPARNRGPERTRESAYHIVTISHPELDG
Method: The in vitro modulation of recombinant human GPR119 was determined as follows.
A human-mouse chimeric GPR119 expression construct encoding 3 copies of the FLAG epitope tag, the first 198 amino acids of human GPR119 and the C-terminal 137 amino acids of the mouse receptor was cloned into a tetracycline inducible vector pcDNA5/FRT/TO (Invitrogen #V6520-20), which includes a hygromycin-resistance marker. Tightly controlled receptor expression was achieved by stable integration of this construct into the genome of a specific host cell line, Flp-In-T-Rex-HEK293, expressing the tetracycline repressor (Invitrogen). Once a stable hygromycin-resistant cell line was generated, the cells were maintained at 37° C. in a humidified 5% CO2 atmosphere in culture medium consisting of Dulbecco's modified Eagle's medium (DMEM; Invitrogen #11960) supplemented with 2 mM L-glutamine, 10% fetal bovine serum, 200 μg/ml hygromycin B, and 15 μg/ml blasticidin.
Forty-eight hours prior to the cAMP accumulation assay, cells stably expressing the chimeric human/mouse GPR119 construct were seeded at a density of 4×10^3 cells/well in 384 well poly-D-lysine coated solid white plates (BD #35-6661) and grown at 37° C. in a humidified 5% CO2 atmosphere in culture medium supplemented with 1 μg/ml tetracycline to induce expression of the receptor. On the day of the assay, medium was removed and cells were incubated for 50 min. at 37° C. in a humidified 5% CO2 atmosphere in 20 μl/well of assay buffer (phosphate-buffered saline with Ca^2+ and Mg^2+, 12 mM glucose, 0.1 mM isobutyl-methyl-xanthine, 0.1% fatty-acid free bovine serum albumin) with the desired concentration of compound added from a concentrated stock dissolved in dimethyl sulfoxide (DMSO) to give a final concentration of 1% DMSO in the assay. cAMP accumulation was measured using the CisBio homogeneous time resolved fluorescence (HTRF) assay kit (#62AM2PEC) following the manufacturer's protocol. Briefly, 10 μl each of the cAMP-HTRF fluorescence detection reagents were added to each well, and the samples were incubated for 40 min. at room temperature. Fluorescence was excited at 320 nm and measured at 665 and 620 nm using the Envision instrument (Perkin Elmer), the fluorescence ratio of 665/620 was calculated and converted to nanomolar concentrations of cAMP in each well by interpolation from a cAMP standard curve. The concentration-response curves and EC50 values were calculated with a four parameter logistic curve fit equation utilizing Excel/XLfit software (Microsoft and IDBS). The EC50 value was calculated as the concentration of agonist which increased the cAMP concentration to a value halfway between the baseline and the maximum.
Compounds of the present invention were tested in the Tet-inducible cAMP assay described immediately above and the results shown in Table 2 below were obtained.

EC50 [2]	SMILES	Glucose Lowering (%) ([1]; change in plasma glucose AUC vs vehicle at the minimally efficacious dose, oGTT, oral)	Minimally efficacious Dose ([1]; oral administration 60 min before glucose load (2 g/kg), fasted male C57BL/6J mice)
1080 nM	CCCc1cnc(N2C[C@@H]3[C@@H](COc4nc5ccc(-c6ccc(S(C)(=O)=O)cc6)cc5s4)[C@@H]3C2)nc1 [Example 266]	–	–
20.4 nM	Cc1nnc(N2CCC(Oc3nc4ccc(-c5ccc(S(C)(=O)=O)cc5)cc4s3)CC2)s1 [Example 294]	–	–
46.1 nM	Cc1cc(C)nc(N2CCC(Oc3nc4ccc(-c5ccc(S(C)(=O)=O)cc5)cc4s3)CC2)n1 [Example 296]	–	–
345 nM	CC(C)OC(=O)N1CCC(Oc2nc3ccc(C4=CCN(C(=O)OC(C)(C)C)CC4)cc3s2)CC1 [Example 301]	–	–

The next lines start with the compound.

SMILES	EC50 [2]	Glucose Lowering (%) ([1]; change in plasma glucose AUC vs vehicle at the minimally efficacious dose, oGTT, oral)	Minimally efficacious Dose ([1]; oral administration 60 min before glucose load (2 g/kg), fasted male C57BL/6J mice)
CCCc1cnc(N2CCC(Oc3nc4ccc(C5=CCN(S(=O)(=O)CCC)CC5)cc4s3)CC2)nc1 [Example 1, 2-(1-(5-Propylpyrimidin-2-yl)piperidin-4-yloxy)-6-(1-(propylsulfonyl)-1,2,3,6-tetrahydropyridin-4-yl)benzo[d]thiazole]	–	−39%	10 mg/kg
CC(C)(O)CCS(=O)(=O)N1CCC(c2ccc3nc(OC4CCN(c5ncc(Cl)cn5)CC4)sc3c2)CC1 [Example 246]	3.9 nM	–	–
